Measurements reported in patent US20260055143A1, “HIGH AFFINITY VARIANTS OF SH2 DOMAINS” (Axoiya Inc., priority 2023, published 2026).

System: PPPT{pTyr}TEVDP
Assay: Competitive ELISA, Ptn11_C variants
Type: binding
Method: Competitive and non-competitive phage ELISAs were performed as previously described with minor modifications to the protocol. Peptide sequences used for these analyses can be found in Table 4.
Streptavidin (50 ng/well in TBS (50 mM Tris-HCl pH 8.0, 150 mM NaCl) was coated onto MAXISORP plates (Thermo Scientific). Phage binding was detected using HRP conjugated anti-M13 secondary antibody (1/2000 dilution, GE Healthcare) in TBS buffer containing 0.05% Tween-20 (TBT buffer). Phage binding was detected using the 3,3′,5,5′-tetramethylbenzidine (TMB) (Thermo Fisher Scientific) chromogenic substrate. Plates were read using a PowerWave XS microplate reader (BioTek).
Competitive phage-ELISAs were used to determine binding affinity of SH2 superbinders for their cognate target. ELISAs were performed as previously described, biotinylated and phosphorylated peptides were immobilized on plates at the concentration of 0.2 μM, and available binding sites on streptavidin were blocked by adding 25 μl/well of 50 μM D-biotin in TBS. […] Data were plotted using Prism 6 software (GraphPad Software Inc) and affinity of SH2 domains was inferred from determination of the half maximal inhibition concentration (IC50).
Peptides listed in Table 5 were used to assay for binding affinity of each corresponding SH2 domain.

change in binding (αA-2-Arg mutation alone): not sufficient to enhance the binding
Substance: Ptn11_C^wt: wild-type PTN11_C SH2 domain, SEQ ID 57
change in affinity (with either the sSrc or sFes graft): no improvement in affinity
